27 compounds from patent US9067898B1, “Isothiazole derivatives as GPR120 agonists for the treatment of type II diabetes” (Janssen Pharmaceutica NV, priority 2014, dated 2015) can be followed below.

By EC50 is commonly meant the concentration at which the effect is half-maximal.

T1 sequence (Q5NUL3 whole entry): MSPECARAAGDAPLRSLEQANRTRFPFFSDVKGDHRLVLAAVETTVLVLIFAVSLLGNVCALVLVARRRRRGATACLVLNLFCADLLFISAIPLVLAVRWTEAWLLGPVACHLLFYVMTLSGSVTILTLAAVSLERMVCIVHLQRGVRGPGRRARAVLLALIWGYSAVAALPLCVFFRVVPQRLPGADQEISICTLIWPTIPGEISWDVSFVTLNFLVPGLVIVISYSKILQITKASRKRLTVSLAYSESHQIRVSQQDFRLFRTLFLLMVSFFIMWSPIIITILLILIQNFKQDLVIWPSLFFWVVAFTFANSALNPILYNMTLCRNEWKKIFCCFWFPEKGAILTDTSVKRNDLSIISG
T1 sequence (P32121 whole entry partner): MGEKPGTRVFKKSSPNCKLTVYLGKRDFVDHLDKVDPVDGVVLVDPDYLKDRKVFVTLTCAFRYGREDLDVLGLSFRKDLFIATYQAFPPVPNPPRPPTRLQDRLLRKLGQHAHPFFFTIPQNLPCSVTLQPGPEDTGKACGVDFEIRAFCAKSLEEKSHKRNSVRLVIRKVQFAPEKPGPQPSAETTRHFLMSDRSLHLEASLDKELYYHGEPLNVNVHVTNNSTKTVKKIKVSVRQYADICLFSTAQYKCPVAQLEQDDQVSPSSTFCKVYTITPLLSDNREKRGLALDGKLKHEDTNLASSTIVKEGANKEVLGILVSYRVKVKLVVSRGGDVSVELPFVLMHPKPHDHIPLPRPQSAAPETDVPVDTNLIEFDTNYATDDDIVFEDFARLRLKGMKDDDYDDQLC

The first test has as its target T1, short form of the GPR120 receptor (GPR120S) (Homo sapiens, UniProt Q5NUL3).
T1 construct: host or cells: PathHunter CHO-K1 GPR120S β-Arrestin Cell Line
Description: Human GPR120 DiscoveRx PathHunter Beta-Arrestin assay, Procedure β-arrestin B. The following applies: PathHunter CHO-K1 GPR120S β-Arrestin cell line, 5000 cells/well, read-out: hGPR120 β-arrestin B EC50. Format: cell-based. The method in brief: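 PathHunter CHO-K1 β-arrestin cells expressed long-form GPR120 (Procedure A, 3000 cells/well) or short-form GPR120 (Procedure B, 5000 cells/well). Compounds were serially diluted from 25 µM and incubated 90 min at 37 °C in HBSS/20 mM HEPES/0.1% BSA, pH 7.4. Luminescence was read after 60 min detection at RT; EC50 comes from % activity versus positive control, Hill slope fixed at 1.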
Consider “3-(4-[[3-(4-chlorophenyl)-5-(trifluoromethyl)-1,2-thiazol-4-yl]methoxy]-3-methylphenyl)propanoic acid [Cpd 235]”, for which the EC50 amounted to 322 nM. On the same count and under the same terms, for “3-(4-[[3-(4-ethylphenyl)-5-(trifluoromethyl)-1,2-thiazol-4-yl]methoxy]-1-benzothiophen-7-yl)propanoic acid [Cpd 92]” the value was 31 nM; for “3-(4-[[3-(4-ethylphenyl)-5-(trifluoromethyl)-1,2-thiazol-4-yl]methoxy]-3,5-difluorophenyl)propanoic acid [Cpd 70]”, 68 nM. Same read-out and setting: the result for `CCc1ccc(-c2cc(F)sc2COc2ccc(CCC(=O)O)c(C)c2C)cc1` [Cpd 1, 3-(4-[[3-(4-ethylphenyl)-5-fluorothiophen-2-yl]methoxy]-2,3-dimethylphenyl)propanoic acid] reads 205 nM; that for `Cc1c(CCC(=O)O)ccc(OCc2sc(F)cc2-c2ccc(Cl)cc2)c1C` [Cpd 3, 3-(4-((3-(4-chlorophenyl)-5-fluorothiophen-2-yl)methoxy)-2,3-dimethylphenyl)propanoic acid], 83 nM; that for `OCCCc1cc(F)c(OCc2c(-c3ccc4c(c3)OCO4)csc2C(F)(F)F)c(F)c1` [Cpd 37, 3-(4-((4-(benzo[d][1,3]dioxol-5-yl)-2-(trifluoromethyl)thiophen-3-yl)methoxy)-3,5-difluorophenyl)propan-1-ol], 22 nM.

Turning to `Cc1ccc(-c2nsc(C(F)(F)F)c2COc2c(F)cc(CCC(=O)O)cc2F)c(F)c1` [Cpd 65, 3-(3,5-difluoro-4-[[3-(2-fluoro-4-methylphenyl)-5-(trifluoromethyl)-1,2-thiazol-4-yl]methoxy]phenyl)propanoic acid], the EC50 amounted to 126 nM. Same read-out and setting: the result for `O=C(O)CCc1cc(F)c(OCc2c(-c3ccc(Cl)c(F)c3)nsc2C(F)(F)F)c(F)c1` [Cpd 67, 3-(4-((3-(4-chloro-3-fluorophenyl)-5-(trifluoromethyl)isothiazol-4-yl)methoxy)-3,5-difluorophenyl)propanoic acid] reads 43 nM. For the compound `O=C(O)CCc1cc(F)c(OCc2c(C3CCCC3)nsc2C(F)(F)F)c(F)c1` [Cpd 71, 3-(4-[[3-cyclopentyl-5-(trifluoromethyl)-1,2-thiazol-4-yl]methoxy]-3,5-difluorophenyl)propanoic acid], the EC50 was 139 nM. With `O=C(O)CCc1cc(F)c(OCc2c(-c3ccc(Cl)cc3F)nsc2C(F)(F)F)c(F)c1` [Cpd 74, 3-(4-((3-(4-chloro-2-fluorophenyl)-5-(trifluoromethyl)isothiazol-4-yl)methoxy)-3,5-difluorophenyl)propanoic acid], the EC50 worked out at 63 nM. As to `Cc1ccc(-c2nsc(C(F)(F)F)c2COc2c(F)cc(CC(C)C(=O)O)cc2F)c(F)c1` (stereo not drawn) [Cpd 76, 3-(3,5-difluoro-4-[[3-(2-fluoro-4-methylphenyl)-5-(trifluoromethyl)-1,2-thiazol-4-yl]methoxy]phenyl)-2-methylpropanoic acid], the EC50 was found to be 179 nM. Still for that read-out and setting: the result for `O=C(O)CCc1cc(F)c(OCc2c(-c3ccc(Cl)cc3)nsc2C(F)(F)F)c(F)c1` [Cpd 79, 3-(4-[[3-(4-chlorophenyl)-5-(trifluoromethyl)-1,2-thiazol-4-yl]methoxy]-3,5-difluorophenyl)propanoic acid] reads 62 nM.

`OCCCc1cc(F)c(OCc2c(-c3ccc4c(c3)OCO4)nsc2C(F)(F)F)c(F)c1` [Cpd 93, 3-(4-[[3-(2H-1,3-benzodioxol-5-yl)-5-(trifluoromethyl)-1,2-thiazol-4-yl]methoxy]-3,5-difluorophenyl)propan-1-ol]: the EC50 worked out at 27 nM. Same read-out and setting: the result for `CC(Cc1cc(F)c(OCc2c(-c3ccc(Cl)cc3)nsc2C(F)(F)F)c(F)c1)C(=O)O` (stereo not drawn) [Cpd 108, 3-(4-[[3-(4-chlorophenyl)-5-(trifluoromethyl)-1,2-thiazol-4-yl]methoxy]-3,5-difluorophenyl)-2-methylpropanoic acid] reads 162 nM; that for `O=C(O)CCc1cc(F)c(OCc2c(-c3ccc(Cl)cc3)nsc2C(F)(F)F)c(F)c1F` [Cpd 116, 3-(4-((3-(4-chlorophenyl)-5-(trifluoromethyl)isothiazol-4-yl)methoxy)-2,3,5-trifluorophenyl)propanoic acid], 88 nM.

Take `Cc1c(CCC(=O)O)ccc(OCc2c(-c3ccccc3)nsc2C(F)(F)F)c1C` [Cpd 134, 3-(2,3-dimethyl-4-[[3-phenyl-5-(trifluoromethyl)-1,2-thiazol-4-yl]methoxy]phenyl)propanoic acid]: the EC50 worked out at 409 nM. Take `O=C(O)CCc1cc(F)c(OCc2c(-c3ccc(Cl)c(F)c3)nsc2C(F)(F)F)c(F)c1F` [Cpd 138, 3-(4-((3-(4-chloro-3-fluorophenyl)-5-(trifluoromethyl)isothiazol-4-yl)methoxy)-2,3,5-trifluorophenyl)propanoic acid]: the EC50 was found to be 161 nM.

As for `Cc1c(CCC(=O)O)ccc(OCc2c(-c3ccc(Cl)cc3)nsc2C(F)(F)F)c1C` [Cpd 142, 3-(4-((3-(4-chlorophenyl)-5-(trifluoromethyl)isothiazol-4-yl)methoxy)-2,3-dimethylphenyl)propanoic acid], the EC50 worked out at 100 nM. On to `O=C(O)CCc1c(F)c(F)c(OCc2c(-c3ccc(Cl)cc3)nsc2C(F)(F)F)c(F)c1F` [Cpd 152, 3-(4-((3-(4-chlorophenyl)-5-(trifluoromethyl)isothiazol-4-yl)methoxy)-2,3,5,6-tetrafluorophenyl)propanoic acid], for which the EC50 turned out to be 183 nM. For the compound `O=C(O)CCc1cc(F)c(OCc2c(-c3ncc(Cl)cc3F)nsc2C(F)(F)F)c(F)c1` [Cpd 153, 3-(4-((3-(5-chloro-3-fluoropyridin-2-yl)-5-(trifluoromethyl)isothiazol-4-yl)methoxy)-3,5-difluorophenyl)propanoic acid], the EC50 stood at 104 nM. On the same count and under the same terms, the result for `CCc1cc(CCC(=O)O)ccc1OCc1c(-c2ccc(Cl)cc2)nsc1C(F)(F)F` [Cpd 162, 3-(4-[[3-(4-chlorophenyl)-5-(trifluoromethyl)-1,2-thiazol-4-yl]methoxy]-3-ethylphenyl)propanoic acid] reads 54 nM; that for `Cc1c(CCC(=O)O)ccc(OCc2c(-c3ncc(Cl)cc3F)nsc2C(F)(F)F)c1C` [Cpd 180, 3-(4-((3-(5-chloro-3-fluoropyridin-2-yl)-5-(trifluoromethyl)isothiazol-4-yl)methoxy)-2,3-dimethylphenyl)propanoic acid], 294 nM; that for `Cc1ccccc1-c1snc(Cl)c1COc1c(F)cc(CCC(=O)O)cc1F` [Cpd 193, 3-(4-[[3-chloro-5-(2-methylphenyl)-1,2-thiazol-4-yl]methoxy]-3,5-difluorophenyl)propanoic acid], 990 nM. Still for that read-out and setting: the result for `OCC#Cc1cc(F)c(OCc2c(-c3ccc(Cl)cc3)nsc2C(F)(F)F)c(F)c1` [Cpd 213, 3-(4-[[3-(4-chlorophenyl)-5-(trifluoromethyl)-1,2-thiazol-4-yl]methoxy]-3,5-difluorophenyl)prop-2-yn-1-ol] reads 87 nM.

For a further test, the system named is C57bl/6J mice. Put plainly: C57bl6 mouse OGTT. It is filed as in vivo. The following applies: 3 mg/kg dosed 30 min before glucose PO 3 g/kg. How it is done:
Male, C57bl/6J Mice were ordered in at 8 weeks of age from Jackson Labs. Individual mice weighed anywhere in the range of 25-30 grams on study day. The mice were fasted, with removal of food occurring at 7 am on the morning of the study. Animals were moved into the room at 10:00 am, to give them time to acclimate. Glucose (insulin syringes) was drawn up either the night before or the morning of the study. Glucose was dosed (IP) at 1.5 g/kg at 7.5 ml/kg (20% glucose straight TEKNOVA, 250 ml sterile bottle w/catalogue number G0525). Test compounds were kept spinning and were only drawn into the syringes prior to study commencement. Animals were bled via tail snip to determine basal glucose levels prior to dosing of treatments. An Ascensia BREEZE Blood Glucose Monitoring System by Bayer (using unique 10-test disks) was used for determining glucose levels. The bleeds started at approximately 12:45 pm and dosing started, at 1-minute intervals, immediately after. All groups were dosed 30 minutes prior to glucose administration at a dose volume of 10 ml/kg (the dose volume was calculated separately for each individual animal). Thirty minutes after the first dose animals were bled again for a second baseline, or T=0, and immediately dosed with glucose via an i.p. injection. The exact dose volume for glucose was also calculated separately for each individual animal. Glucose measurements were taken at −30 min prior to compound dose, at t=0 (immediately prior to glucose dose), and at 15, 30, 45, 60, 90 min post glucose dose.
Glucose values were entered into an Excel sheet and graphed in GraphPad Prism. The following were calculated from Prism: Change from −30 to 0 BSLN Glucose, Raw Glucose AUC −30 to 90 min, Delta Glucose AUC −30 to 90 min, Raw Glucose AUC 0 to 90 min, Delta Glucose AUC 0 to 90 min.
The assay design is the same as that described above for the C57bl6 mouse IPGTT. The difference is that glucose was dosed PO at 3 g/kg, 7.5 ml/kg of 40% glucose.
Representative compounds of the present invention were tested according to the procedures as described in Biological Example 4, above with results as listed in Table 3, below. […] Where a compound was tested more than once, each result is listed individually.
On to “3-(4-[[3-(4-ethylphenyl)-5-(trifluoromethyl)-1,2-thiazol-4-yl]methoxy]-1-benzothiophen-7-yl)propanoic acid [Cpd 92]”, for which the “C57 OGTT 3 mg/kg” value is listed as −39. With `O=C(O)CCc1cc(F)c(OCc2c(C3CCCC3)nsc2C(F)(F)F)c(F)c1` [Cpd 71, 3-(4-[[3-cyclopentyl-5-(trifluoromethyl)-1,2-thiazol-4-yl]methoxy]-3,5-difluorophenyl)propanoic acid], the “C57 OGTT 3 mg/kg” value was −37. Same read-out and setting: the result for `CCc1ccc(-c2snc(Cl)c2COc2ccc(CCC(=O)O)c(C)c2C)cc1` [Cpd 85, 3-(4-[[3-chloro-5-(4-ethylphenyl)-1,2-thiazol-4-yl]methoxy]-2,3-dimethylphenyl)propanoic acid] reads −49. On the same count and under the same terms, for `OCCCc1cc(F)c(OCc2c(-c3ccc(Cl)cc3)nsc2C(F)(F)F)c(F)c1` [Cpd 100, 3-(4-[[3-(4-chlorophenyl)-5-(trifluoromethyl)-1,2-thiazol-4-yl]methoxy]-3,5-difluorophenyl)propan-1-ol] the value was −39; for `OCCCc1ccc(OCc2c(Cl)nsc2-c2ccc(Cl)cc2)c(F)c1F` [Cpd 102, 3-(4-((3-chloro-5-(4-chlorophenyl)isothiazol-4-yl)methoxy)-2,3-difluorophenyl)propan-1-ol], −32; for `Cc1c(CCC(=O)O)ccc(OCc2c(-c3ccc(Cl)cc3)nsc2C(F)(F)F)c1C` [Cpd 142, 3-(4-((3-(4-chlorophenyl)-5-(trifluoromethyl)isothiazol-4-yl)methoxy)-2,3-dimethylphenyl)propanoic acid], −49.
